Experimental data from paper PMC12916490 (Molecular Psychiatry, 2025).

Tests used:
hα2A = target: T1, hα2A (Homo sapiens, UniProt P08913); assay: Radioligand binding, hα2A receptor ([3H]rauwolscine)
T1 construct: expressed in transfected cells; host or cells: Chinese hamster lung cells (membrane preparation)
T1 sequence (P08913 1-465): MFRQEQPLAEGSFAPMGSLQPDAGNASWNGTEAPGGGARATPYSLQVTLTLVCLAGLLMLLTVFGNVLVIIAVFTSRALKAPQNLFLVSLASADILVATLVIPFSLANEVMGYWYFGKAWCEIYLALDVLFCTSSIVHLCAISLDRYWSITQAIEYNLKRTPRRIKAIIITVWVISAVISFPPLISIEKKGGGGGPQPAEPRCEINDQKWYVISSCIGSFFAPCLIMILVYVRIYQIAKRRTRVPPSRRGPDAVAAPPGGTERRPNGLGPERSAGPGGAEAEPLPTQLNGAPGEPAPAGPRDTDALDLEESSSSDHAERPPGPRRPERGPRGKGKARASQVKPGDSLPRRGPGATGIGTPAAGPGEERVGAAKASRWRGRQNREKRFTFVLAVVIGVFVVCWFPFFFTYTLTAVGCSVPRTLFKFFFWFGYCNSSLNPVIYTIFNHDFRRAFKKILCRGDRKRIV
Procedure: (§1) Binding affinities at human monoamine receptors and transporters were assessed as previously reported. A detailed description of the methodology is provided in the Supplementary information.
(§2) Data analysis was performed with Prism software (version 10.1.2, GraphPad Software, Boston, MA, USA). The IC50 values from the radioligand binding assays were determined by nonlinear regression, using three independent concentration-response curves fitted to a one-site model. The Cheng-Prusoff equation was used to calculate Kᵢ values for the competing ligands. EC50 values were determined by applying nonlinear regression to concentration-response curves. Bias factors (β) were calculated based on the relative intrinsic activity approach. More detailed information can be found in the Supplementary information. Mean values for total number of HTR, change in body temperature from pre to post session (Δ°C), and total distance traveled (cm) for each drug dose were compared (p < 0.05) via Welch’s ANOVA with Dunnett’s T3 post test, comparing all doses to respective vehicle controls (0 mg/kg). Welch’s ANOVA with Dunnett’s T3 post test was also used to compare drug concentrations, but the data were compared to DOM in this case. Dose–response relationships for HTR and locomotor activities were plotted using bell-shaped curve fits, while temperature change data were plotted using four-parameter non-linear regression curve fits. The ascending phase of the HTR curve for each drug was used to determine ED50 potency values from four parameter non-linear regression fits. For combined DOM and DOAM administration, the plasma, brain tissue, and brain dialysate drug concentrations were compared using paired t-tests (p < 0.05). Ratios were compared using Holm-Sidak’s post hoc test following a repeated-measures one-way ANOVA (F (1.709, 6.835) = 70.80; p < 0.0001).
(§3) 3.1 Assessment of receptor and transporter binding affinities
(§4) Membrane preparations were prepared from cells transfected with the respective target. The membrane preparations were then incubated with selective radioligands at concentrations equal to the corresponding Kd and displacement of the ligand by the drugs was measured. The difference between total binding and nonspecific binding (determined in the presence of selective competitors) was defined as specific binding of the radioligand to the target receptor. The following transfected cell lines were used for the binding assays: HEK 293 cells (h5-HT1A, h5-HT2A, h5-HT2B, h5-HT2C, and hD2 receptors, hDAT, hNET, and hSERT), Chinese hamster ovary cells (hα 1A receptor), and Chinese hamster lung cells (hα 2A receptor).
(§5) 3.1.1 Membrane preparations for receptor and transporter binding
(§6) For producing membrane preparations, transfected cells were harvested with trypsin/EDTA, washed with ice-cold phosphate buffered saline, and then pelleted by centrifugation (210 × g for 5 min at 4 °C). The pellets were frozen and stored at -80 °C until use. Frozen pellets were resuspended in 20 m L (receptor binding) or 400 m L (transporter binding) buffer (20 mM HEPES -NaOH, 10 mM EDTA, pH 7.4), and homogenized at 1,100 × g for 20 s (receptor binding) or 560 × g for 15 s (transporter binding); the homogenates were then centrifuged at 48,000 × g for 30 min at 4 °C. For receptor binding assays, the supernatants were discarded and the pellets were resuspended in 20 mL buffer (20 mM HEPES-NaOH, 0.1 mM EDTA, pH 7.4) and homogenized at 1 ,100 × g for 20 s. Centrifugation and discarding of the supernatant were repeated once, and the final pellet was then resuspended in buffer and homogenized.
(§7) 3.1.2 Serotonin 5-HT1A and 5-HT2A receptor binding
(§8) Competitive binding at the h5-HT1A and h5-HT2A receptor was determined using 0.90 nM [ 3H]8-hydroxy-2-(di-n-propylamine)tetralin ([ 3H]8-OH-DPAT; h5-HT1A receptor agonist) and 0.40 nM [3H]ketanserin (h5-HT2 receptor antagonist) as radioligands. The density and affinity of [ 3H]8-OH-DPAT […]

hα1A = target: T2, hα1A (Homo sapiens, UniProt P35348); assay: Radioligand binding, hα1A receptor ([3H]prazosin)
T2 construct: expressed in transfected cells; host or cells: Chinese hamster ovary cells (membrane preparation)
T2 sequence (P35348 1-466): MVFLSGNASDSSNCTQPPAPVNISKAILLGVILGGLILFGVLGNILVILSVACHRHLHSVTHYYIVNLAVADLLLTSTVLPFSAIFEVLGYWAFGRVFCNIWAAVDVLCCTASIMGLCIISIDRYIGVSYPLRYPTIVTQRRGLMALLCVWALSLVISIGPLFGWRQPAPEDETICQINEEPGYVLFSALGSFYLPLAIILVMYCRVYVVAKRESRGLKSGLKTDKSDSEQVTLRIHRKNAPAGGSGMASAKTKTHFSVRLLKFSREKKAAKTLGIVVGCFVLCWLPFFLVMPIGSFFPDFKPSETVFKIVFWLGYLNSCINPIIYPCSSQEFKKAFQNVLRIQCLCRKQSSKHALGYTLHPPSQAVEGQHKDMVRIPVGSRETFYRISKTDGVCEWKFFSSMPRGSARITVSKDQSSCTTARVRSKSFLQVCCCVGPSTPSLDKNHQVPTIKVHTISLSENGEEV
Procedure: as §1, §2, §3, §4, §5, §6, §7, §8

**Q.** Which Ki (hα2A) does the source give for `COc1ccc(OC)c(CC(C)N)c1.Cl` (stereo not drawn) [2,5-DMA, 2,5-Dimethoxyamphetamine hydrochloride] here?
**A.** The Ki was 4.39 µM.

**Q.** And the Ki (hα1A)?
**A.** Its Ki is 5.36 µM.

**Q.** Which results are given for `CCCc1cc(OC)c(CC(C)N)cc1OC.Cl` (stereo not drawn) [DOPR, 4-propyl-2,5-dimethoxyamphetamine hydrochloride]?
**A.** Ki (hα2A): 0.513 µM; Ki (hα1A): 6.99 µM

**Q.** Which results are given for `COc1cc(CC(C)N)c(OC)cc1C` (stereo not drawn) [DOM, 4-methyl-2,5-dimethoxyamphetamine]?
**A.** Ki (hα2A): > 4.97 µM; Ki (hα1A): 7.39 µM

**Q.** With `CCCCc1cc(OC)c(CC(C)N)cc1OC` (stereo not drawn) [DOBU, 4-butyl-2,5-dimethoxyamphetamine] as the compound, how does the Ki (hα2A) read?
**A.** Its Ki is 1.71 µM.

**Q.** And the Ki (hα1A)?
**A.** The Ki was 2.1 µM.

**Q.** What does the source list for `CCc1cc(OC)c(CC(C)N)cc1OC` (stereo not drawn) [DOET, 4-ethyl-2,5-dimethoxyamphetamine]?
**A.** Ki (hα2A): > 4.97 µM; Ki (hα1A): 4.01 µM

**Q.** With `CCCCCc1cc(OC)c(CC(C)N)cc1OC` (stereo not drawn) [DOAM, 4-amyl-2,5-dimethoxyamphetamine] as the compound, how does the Ki (hα2A) read?
**A.** The Ki was 2.31 µM.

**Q.** What about the Ki (hα1A) of the same compound?
**A.** Its Ki is 2.52 µM.
